According to patent US10858305B2, “Perillyl alcohol-3-bromopyruvate conjugate and methods of treating cancer” (NeOnc Technologies, Inc., priority 2016, dated 2020):
Entries after “also recorded” stand apart in the source; their conditions may differ. Read-outs that look alike come from different tables or passages of the source.

What was measured:
[1] = test system: all cell types (breast, brain, ovary, colon cancer cell lines); assay: Summary of cytotoxicity over MTT, LDH and colony formation assays (FIGS. 2-5); type: cell-based, human; conditions: for IC50: Homo sapiens
Description: The tumor cell-killing potency of NEO218 was characterized by in vitro, short-term MTT assays (measuring viability of cells via determination of metabolic activity), LDH assays (measuring the release of lactate dehydrogenase as an indicator of leaky cell membranes, which are indicative of dying cells), and colony-formation assays (CFA, which determine long-term survival of drug-treated cells and their ability to spawn a colony of descendants). Several established cell lines derived from cancers of the breast were used as target cells (including MDA-MB-231; MDA-MB-468; T47D; MCF7; MCF7/Dox; BTB12), brain (T98G; U251), ovary (A2780), and colon (HCT116). In all cases, cells in culture were exposed to increasing concentrations of agents for 24 or 48 hours.

tumor cells = assay: Cytotoxicity in the presence of necroptosis inhibitor necrostatin-1; type: cell-based; conditions: data not shown
Description: All our data are highly consistent and point to necrosis as the overwhelmingly dominant mechanism of cell death by both 3-BP and NEO218 in our cell systems, as supported by the following observations: (i) A pan-caspase inhibitor exerted no influence on the cytotoxic IC50 of 3-BP or NEO218 (FIG. 21C). (ii) Several established protein markers of apoptosis show very little, if any, response to drug treatment (FIG. 21B). (iii) Loss of structural integrity of the plasma membrane is a hallmark of necrosis and can be documented via cellular uptake of membrane-impermeant dyes (such as propidium iodide, PI) or cellular leakage of cytosolic enzymes (such as lactate dehydrogenase, LDH). […] The loss of plasma membrane integrity is consistent with cell death induced by the severe ATP depletion observed by us (FIG. 22) and reported by others, because maintenance of the cytoplasmic transmembrane electrochemical gradients is highly energy dependent, and their loss inevitably leads to cell swelling and membrane rupture (i.e., necrosis). (iv) Rapid cell death is another characteristic of necrotic cell death. We detected PI positivity and LDH release within the first 2 hours of drug exposure (see FIG. 21A for PI; time course not shown for LDH). […] Cells were treated with 3-BP or NEO218 in the presence of necrostatin-1 (Nec-1), a commonly used inhibitor of necroptosis.

[2] = test system: HCT116 colon cancer cells; assay: Cellular ATP content assay; type: cell-based, human; conditions: HCT116; 3 hours (FIG. 9) or 3 and 6 hours at 40 μM (FIG. 22)
Protocol: HCT116 cells were treated with 40 μM 3-BP or NEO218. As a point of reference, cells were also exposed to 100 nM rotenone in glucose-free medium. ATP levels were determined after 3 and 6 hours. ATP levels in untreated cells were set at 100% (corresponding to 26.6 nmol per one million cells).
HCT116 colon cancer cells were treated cells with: NEO218, 3-BP; rotenone (a mitochondrial poison that blocks the respiratory chain); medium without glucose (“no gluc”; in order to shut down glycolysis); and, rotenone in combination with absent glucose (to cease all intracellular ATP production). After 3 hours of treatment, a commercially available ATP detection assay kit was employed to determine the relative levels of ATP present.
ATP content of cells was measured with the ATP Colorimetric/Fluorometric Assay kit (Biovision Inc., Milpitas, Calif.), which utilizes the phosphorylation of glycerol to generate a product that is quantified by colorimetry at 570 nm. Approximately 1×10^6 cells were cultured in 10-cm tissue culture plates, exposed to drug treatment for various time periods, and then processed as per manufacturer's instructions. All ATP levels were normalized to untreated controls and presented as percentage of controls.

HCT116 cells = assay: FACS analysis for annexin V and propidium iodide; type: cell-based, human; conditions: for incorporation of PI (necrosis) versus annexin V (apoptosis): 2, 4 or 8 hours of treatment; for earliest detection of shift to PI-positive quadrant after onset of treatment: HCT116, 30 μM; for PI-positive cells at 8 hours: HCT116, 8 hours
Protocol: (A) FACS analysis of HCT116 cells after treatment for 2, 4, or 8 hours with vehicle, 30 μM 3-BP, 30 μM NEO218, or 1 μM staurosporine (STS). […] (B) Western blot analysis of apoptotic markers. In the top section, MDA-MB-231 cells were treated with 30 μM NEO218 or 1 μM STS for various time points. In the lower section, HCT116 cells were treated with the indicated concentrations of 3-BP, NEO218, or STS for 16 hours. In all cases cell lysates were prepared and analyzed for the well-established apoptotic markers cleaved PARP, cleaved (i.e., activated) caspase 7 (cl. C-7), and phosphorylated (i.e., active) H2AX. Actin was used as a loading control. (C) HCT116 cells were pretreated with 50 μM Z-VAD-FMK for one hour, followed by the addition of increasing concentrations of 3-BP or NEO218. Cell viability was determined by MTT assay 24 hours later. Data points are averages from n=3.
In the absence of indications that apoptotic mechanisms played a significant role in cell death induced by NEO218, necrosis was investigated as a potential key mechanism. The distinction between apoptotic and necrotic cell death was made by measuring annexin V staining (a marker of apoptosis) and PI (propidium iodide) staining (a marker of necrosis) of drug-treated cells, in comparison to non-drug-treated cells (as a control). Measurements of annexin V and PI were done by FACS analysis after 2, 4, or 8 hours of treatment. Cells were treated with NEO218, 3-BP, and staurosporine (individually), and incorporation of propidium iodide (PI, a marker of necrotic cell death) or annexin V (a marker for apoptosis) was determined by fluorescence-activated cell sorting.
The results are organized in FIG. 8 as follows: no treatment (top row), 3-BP (second row), NEO218 (third row), and staurosporine (bottom row).
Characterization of cell death was performed by flow cytometry using the Alexa Fluor® 488 Annexin V/Dead Cell Apoptosis kit (Thermo Fisher Scientific). This kit contains recombinant, green fluorophore-conjugated annexin V, which reacts with apoptotic cells, and DNA-binding, red-fluorescent propidium iodide (PI), which is impermeant to live and apoptotic cells, but stains dead cells. The different cell populations can be distinguished by green fluorescence (apoptotic cells), red fluorescence (necrotic/dead cells), and no fluorescence (live cells) during flow cytometry with 488 nm laser excitation. Control or drug-treated cells were processed as per manufacturer's instructions, followed by flow cytometry of 10,000 cells per point with an LSR II (BD Biosciences, San Jose, Calif.) at the USC Flow Cytometry Core Facility.

[3] = all cell types, FIGS. 2-5, read-out: IC50 (ability of a drug to reduce cell survival by 50%)

`O=C(O)C(=O)CBr` [3-BP, 3-bromopyruvate] was tested, and the IC50 [1, 3] was 10 to 200 µM, the IC50 ([1]; cell types in which 3-BP is not similarly potent, read-out: concentrations required for cell death in less sensitive cell types) was greater than 200 µM and the “effect of necrostatin-1 on drug-induced cytotoxic outcome” value (tumor cells) was “no impact of Nec-1 on drug-induced cytotoxic outcome could be detected”. The “depletion of cellular ATP pools” value [2] was “nearly identical outcomes; also recorded: potently depletes the levels of cellular ATP pools”, the “incorporation of PI (necrosis) versus annexin V (apoptosis)” value (HCT116 cells) was “vigorous incorporation of PI, but very little annexin V” and the “incorporation of PI (necrosis) versus annexin V (apoptosis)” value (HCT116 cells; listed as 3-GP) was “move straight from the bottom left quadrant to the upper right quadrant”. For the same molecule, the “earliest detection of shift to PI-positive quadrant after onset of treatment” value (HCT116 cells) was 2 h and the “PI-positive cells at 8 hours” value (HCT116 cells) was “the majority of cells was PI-positive”.

With `C=C(C)[C@@H]1CC=C(COC(=O)C(=O)CBr)CC1` [NEO218, 3-bromo-2-oxo-propionic acid 4-isopropenyl-cyclohex-1-enylmethyl ester] the IC50 [1, 3] was 5 to 30 µM, the “killing of drug-resistant cells” value ([1]; T98G (TMZ-resistant) and MCF7/Dox (multi-drug-resistant) cells) was “effectively killed” and the “effect of necrostatin-1 on drug-induced cytotoxic outcome” value (tumor cells) was “no impact of Nec-1 on drug-induced cytotoxic outcome could be detected”. For the same molecule, the “depletion of cellular ATP pools” value [2] was “nearly identical outcomes; also recorded: potently depletes the levels of cellular ATP pools”, the “incorporation of PI (necrosis) versus annexin V (apoptosis)” value (HCT116 cells) was “move straight from the bottom left quadrant to the upper right quadrant; also recorded: vigorous incorporation of PI, but very little annexin V” and the “time to initiation of cell death” value (HCT116 cells; FIG. 8 and LDH time course of FIG. 4) was 1 to 2 h. The “earliest detection of shift to PI-positive quadrant after onset of treatment” value (HCT116 cells) was 2 h and the “PI-positive cells at 8 hours” value (HCT116 cells) was “the majority of cells was PI-positive”.
